Structures can show the parent of a compound that is named as a salt. Where two headings read alike, the source gives them in different places.
Assays:
wild-type HIV-1 protease = wild-type HIV-1 protease (Human immunodeficiency virus type 1 group M subtype B, UniProt P04585); experiment: Assay for inhibition of microbial expressed HIV protease; type: biochemical
Procedure: Assay for Inhibition of Microbial Expressed HIV Protease
Inhibition studies of the reaction of the protease (which was expressed in Eschericia coli) with a peptide substrate [Val-Ser-Gln-Asn-(betanapthyl)Ala-Pro-Ile-Val]. The inhibitor is first preincubated with the enzyme in assay buffer (50 mM sodium acetate, pH 5.5, 100 mM NaCl, and 0.1% BSA) for 30 minutes at room temperature. Substrate is added to 440 micromolar in a total volume of 80 microliters containing 5 picomolar HIV-1 protease, and the reaction is incubated for 1 hour at 30° C. The reaction is quenched by addition of 120 microliters of 10% phosphoric acid, and product formation is determined after separation of product and substrate on a Vydac C18 column connected to an Alliance high performance liquid chromatography system (Waters Corporation). The extent of inhibition of the reaction is determined from the peak area of the products.

[1] = test system: acute HIV infection of T-lymphoid cells; experiment: Assay for inhibition of HIV replication (spread assay); type: cell-based, HIV-1; conditions: Human immunodeficiency virus 1, T-lymphoid; read-out: Spread - IC95
Procedure: • Assay for Inhibition of HIV Replication
Assays for the inhibition of acute HIV infection of T-lymphoid cells were conducted in accordance with Vacca, J. P. et al., Proc. Natl. Acad. Sci. USA 1994, 91: 4096.

[2] = wild-type HIV-1 protease expressed in E. coli, peptide substrate, pH 5.5, read-out: Enzyme Inhibition - IC50

Structure (SMILES)	IC50 (wild-type HIV-1 protease)	IC95 [1]	IC50 (wild-type HIV-1 protease; [2])
CC(C)CCN([C@H](CO)CCC[C@@H](NC(=O)[C@@H](N)C(c1ccc(F)cc1)c1ccc(F)cc1)C1CC1)S(=O)(=O)c1ccc([C@H](C)O)cc1 [Example J18, N-{(1R,5S)-1-cyclopropyl-6-hydroxy-5-[({4-[(1S)-1-hydroxyethyl]phenyl}sulfonyl)(3-methylbutyl)amino]hexyl}-4-fluoro-β-(4-fluorophenyl)-L-phenylalaninamide hydrochloride]	0.01 nM	8 nM	
COC(=O)N[C@H](C(=O)NC(C)(C)CCC[C@@H](CO)N(CCC(C)C)S(=O)(=O)c1ccc(N)cc1)C(c1ccccc1)c1ccccc1 [Example L4, N-{(5S)-5-[[(4-aminophenyl)sulfonyl](3-methylbutyl)amino]-6-hydroxy-1,1-dimethylhexyl}-Nα-(methoxycarbonyl)-β-phenyl-L-phenylalaninamide]		41 nM	0.01 nM
COC(=O)N[C@H](C(=O)N[C@H](CCC[C@@H](CO)N(C(C)C)S(=O)(=O)c1ccc(N)cc1)C(C)C)C(c1ccccc1)c1ccccc1 [Example F14, N-{(1R,5S)-5-[[(4-aminophenyl)sulfonyl](isopropyl)amino]-6-hydroxy-1-isopropylhexyl}-Nα-(methoxycarbonyl)-β-phenyl-L-phenylalaninamide]		148 nM	1.76 nM
COC(=O)N[C@H](C(=O)NC(C)(C)CCC[C@@H](CO)N(C(C)C)S(=O)(=O)c1ccc(N)cc1)C(c1ccccc1)c1ccccc1 [Example L8]		264 nM	0.267 nM
CC[C@@H](CCC[C@@H](CO)N(CCC(C)C)S(=O)(=O)c1ccc(N)cc1)NC(=O)[C@@H](NC(=O)OC)C1c2ccccc2C=Cc2ccccc21 [Example F6, methyl [2-({(1S,5S)-5-[[(4-aminophenyl)sulfonyl](3-methylbutyl)amino]-1-ethyl-6-hydroxyhexyl}amino)-1-(5H-dibenzo[a,d][7]annulen-5-yl)-2-oxoethyl]carbamate]		10 nM	0.01 nM
CC[C@@H](CCC[C@@H](CO)N(CC(C)C)S(=O)(=O)c1ccc(N)cc1)NC(=O)[C@@H](NC(=O)OC)C(c1ccccc1)c1ccccc1 [Example D11, N-{(1S,5S)-5-[[(4-aminophenyl)sulfonyl](isobutyl)amino]-1-ethyl-6-hydroxyhexyl}-Nα-(methoxycarbonyl)-β-phenyl-L-phenylalaninamide]		18 nM	0.109 nM
COC(=O)N[C@H](C(=O)N[C@H](CCC[C@@H](CO)N(C)S(=O)(=O)c1ccc(N)cc1)C(F)(F)F)C(c1ccccc1)c1ccccc1 [Example H6, N-[(1R,5S)-5-[[(4-aminophenyl)sulfonyl](methyl)amino]-6-hydroxy-1-(trifluoromethyl)hexyl]-Nα-(methoxycarbonyl)-β-phenyl-L-phenylalaninamide]	1.01 nM	138 nM	
CC[C@@H](CCC[C@@H](CO)N(CCC(C)C)S(=O)(=O)c1ccc(N)cc1)NC(=O)[C@@H](NC(=O)OC)C1c2ccccc2Oc2ccccc21 [Example F11, methyl [2-({(1S,5S)-5-[[(4-aminophenyl)sulfonyl](3-methylbutyl)amino]-1-ethyl-6-hydroxyhexyl}amino)-2-oxo-1-(9H-xanthen-9-yl)ethyl]carbamate]		38 nM	0.021 nM
CC[C@@H](CCC[C@@H](CO)N(CC(C)C)S(=O)(=O)c1ccc(CO)cc1)NC(=O)[C@@H](NC)C(c1ccccc1)c1ccccc1 [Example J24, N-{(1S,5S)-1-ethyl-6-hydroxy-5-[{[4-(hydroxymethyl)phenyl]sulfonyl}(isobutyl)amino]hexyl}-Nα-methyl-β-phenyl-L-phenylalaninamide hydrochloride]	0.055 nM	16 nM	
CCC[C@@H](CCC[C@@H](CO)N(CCCF)S(=O)(=O)c1ccc(N)cc1)NC(=O)[C@@H](NC(=O)OC)C(c1ccccc1)c1ccccc1 [Example D13, N-{(1S,5S)-5-[[(4-aminophenyl)sulfonyl](3-fluoropropyl)amino]-6-hydroxy-1-propylhexyl}-Nα-(methoxycarbonyl)-β-phenyl-L-phenylalaninamide]		213 nM	0.867 nM
COC(=O)N[C@H](C(=O)N[C@H](CCC[C@@H](CO)N(CCC(C)C)S(=O)(=O)c1ccc(CO)cc1)C(C)(C)C)C(c1ccccc1)c1ccccc1 [Example J6, N-{(1R,5S)-1-tert-butyl-6-hydroxy-5-[{[4-(hydroxymethyl)phenyl]sulfonyl}(3-methylbutyl)amino]hexyl}-Nα-(methoxycarbonyl)-β-pbenyl-L-phenylalaninamide]		327 nM	0.976 nM
COC(=O)N[C@@H](Cc1cccc(Cl)c1Cl)C(=O)N[C@@H](C)CCC[C@@H](CO)N(C(C)C)S(=O)(=O)c1ccc(N)cc1 [Example F16, N-{(1S,5S)-5-[[(4-aminophenyl)sulfonyl](isopropyl)amino]-6-hydroxy-1-methylhexyl}-2,3-dichloro-Nα-(methoxycarbonyl)-L-phenylalaninamide]	0.128 nM	58 nM	
COC(=O)N[C@H](C(=O)N[C@@H](CCC[C@@H](CO)N(CCC(C)C)S(=O)(=O)c1ccc(CO)cc1)C(F)(F)F)C(c1ccccc1)c1ccccc1 [Example J7, N-[(1S,5S)-6-hydroxy-5-[{[4-(hydroxymethyl)phenyl]sulfonyl}(3-methylbutyl)amino]-1-(trifluoromethyl)hexyl]-Nα-(methoxycarbonyl)-β-phenyl-L-phenylalaninamide]		359 nM	0.623 nM
CCCN([C@H](CO)CCC[C@@H](NC(=O)[C@H](Cc1ccccc1Cl)NC(=O)OC)C(F)(F)F)S(=O)(=O)c1ccc(CO)cc1 [Example J43, 2-chloro-N-[(1R,5S)-6-hydroxy-5-[{[4-(hydroxymethyl)phenyl]sulfonyl}(propyl)amino]-1-(trifluoromethyl)hexyl]-Nα-(methoxycarbonyl)-L-phenylalaninamide]		116 nM	0.126 nM
CC[C@@H](CCC[C@@H](CO)N(CCC(C)C)S(=O)(=O)c1ccc(CO)cc1)NC(=O)[C@@H](NC(=O)OC)C(c1ccc(Cl)cc1)c1ccc(Cl)cc1 [Example J44, 4-chloro-β-(4-chlorophenyl)-N-{(1S,5S)-1-ethyl-6-hydroxy-5-[{[4-(hydroxymethyl)phenyl]sulfonyl}(3-methylbutyl)amino]hexyl}-Nα-(metboxycarbonyl)-L-phenylalaninamide]		126 nM	0.081 nM
COC(=O)N[C@H](C(=O)N[C@@H](C)CCC[C@@H](CO)N(CCC(C)C)S(=O)(=O)c1ccc(CO)cc1)C(c1ccccc1)c1ccccc1 [Example J4, N-{(1S,5S)-6-hydroxy-5-[{[4-(hydroxymethyl)phenyl]sulfonyl}(3-methylbutyl)amino]-1-methylhexyl}-Nα-(methoxycarbonyl)-β-phenyl-L-phenylalaninamide]		6 nM	0.007 nM
COC(=O)N[C@H](C(=O)NCCCC[C@@H](CN)N(CCC(C)C)S(=O)(=O)c1ccc(N)cc1)C(c1ccccc1)c1ccccc1 [Example A2, Methyl [(1S)-2-({6-amino-5-[[(4-aminophenyl)sulfonyl](3-methylbutyl)amino]-hexyl)amino)-1-(diphenylmethyl)-2-oxoethyl]carbamate]		252 nM	5 nM
COC(=O)N[C@H](C(=O)N[C@@H](C)CCC[C@@H](CO)N(C(C)C)S(=O)(=O)c1ccc([C@H](C)O)cc1)C(c1ccccc1)c1ccccc1 [Example K4, N-{(1S,5S)-6-hydroxy-5-[({4-[(1S)-1-hydroxyethyl]phenyl}sulfonyl)(isopropyl)amino]-1-methylhexyl}-Nα-(methoxycarbonyl)-β-phenyl-L-phenylalaninamide]		19 nM	0.015 nM
COC(=O)N[C@H](C(=O)N[C@H](CCC[C@@H](CO)N(CC(C)C)S(=O)(=O)c1ccc(N)cc1)C(C)C)C(c1ccccc1)c1ccccc1 [Example D14, N-{(1R,5S)-5-[[(4-aminophenyl)sulfonyl](isobutyl)amino]-6-hydroxy-1-isopropylhexyl}-Nα-(methoxycarbonyl)-β-phenyl-L-phenylalaninamide]		95 nM	0.519 nM
CC[C@@H](CCC[C@@H](CO)N(CCC(C)C)S(=O)(=O)c1ccc(N)cc1)NC(=O)[C@@H](NC(=O)OCc1ccncc1)C(c1ccccc1)c1ccccc1 [Example F10, N-{(1S,55)-5-[[(4-aminophenyl)sulfonyl](3-methylbutyl)amino]-1-ethyl-6-hydroxyhexyl}-β-phenyl-Nα-[(pyridin-4-ylmethoxy)carbonyl]-L-phenylalaninamide]		17 nM	0.01 nM
C#C[C@@H](CCC[C@@H](CO)N(CCC(C)C)S(=O)(=O)c1ccc(CO)cc1)NC(=O)[C@@H](NC(=O)OC)C(c1ccccc1)c1ccccc1 [Example J13, N-{(1R,5S)-1-ethynyl-6-hydroxy-5-[{[4-(hydroxymethyl)phenyl]sulfonyl}(3-methylbutyl)amino]hexyl}-Nα-(methoxycarbonyl)-β-phenyl-L-phenylalaninamide]		6 nM	0.01 nM
CN[C@H](C(=O)N[C@H](CCC[C@@H](CO)N(CCC(C)C)S(=O)(=O)c1ccc(CO)cc1)C1CC1)C(c1ccccc1)c1ccccc1 [Example J28, N-{(1R,5S)-1-cyclopropyl-6-hydroxy-5-[{[4-(hydroxymethyl)phenyl]sulfonyl}(3-methylbutyl)amino]hexyl}-Nα-methyl-β-phenyl-L-phenylalaninamide]		8 nM	0.01 nM
